{
  "source": "patent US9113629B2",
  "about": "“4-amino-6-(4-substituted-phenyl)-picolinates and 6-amino-2-(4-substituted-phenyl)-pyrimidine-4-carboxylates and their use as herbicides” (DOW AGROSCIENCES LLC, priority 2013, dated 2015)",
  "key": {"[1]": {"test_system": "Key Broadleaf Weed and Crop Species", "experiment": "Post-emergent Test II herbicidal activity (Table 5)", "assay_type": "in vivo", "details": "post-emergence, 336 h, post-emergent, 14 days after application; for pest or weed control at 70 g/ha: 70 g ai/ha; for pest or weed control at 140 g/ha: 140 g ai/ha", "method_in_brief": "(§1)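 Post-emergence foliar spray, 187 L/ha, track sprayer at 43 cm above canopy. Carrier: acetone/water/IPA/DMSO/Atplus 411F/Triton X-155. Plants at 1st–2nd true leaf; subirrigated afterwards; % injury scored visually at 14 d.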"}, "[2]": {"test_system": "Key Grass and Sedge Weeds as well as Grass Crops", "experiment": "Post-emergent Test II herbicidal activity (Table 6)", "assay_type": "in vivo", "details": "post-emergence, 336 h; for pest or weed control at 70 g/ha: application rate 70 g ai/ha; for pest or weed control at 140 g/ha: application rate 140 g ai/ha", "method_in_brief": "as §1"}, "[3]": {"details": "ABUTH: velvetleaf (Abutilon theophrasti), read-out: Visual Growth Reduction (%) 14 Days After Application ABUTH"}, "[4]": {"details": "AMARE: redroot pigweed (Amaranthus retroflexus), read-out: Visual Growth Reduction (%) 14 Days After Application AMARE"}, "[5]": {"details": "BRSNN: oilseed-rape, canola (Brassica napus), read-out: Visual Growth Reduction (%) 14 Days After Application BRSNN"}, "[6]": {"details": "CHEAL: lambsquarters (Chenopodium album), read-out: Visual Growth Reduction (%) 14 Days After Application CHEAL"}, "[7]": {"details": "EPHHL: wild poinsettia (Euphorbia heterophylla), read-out: Visual Growth Reduction (%) 14 Days After Application EPHHL"}, "[8]": {"details": "HELAN: sunflower (Helianthus annuus), read-out: Visual Growth Reduction (%) 14 Days After Application HELAN"}, "[9]": {"details": "VIOTR: wild pansy (Viola tricolor), read-out: Visual Growth Reduction (%) 14 Days After Application VIOTR"}, "[10]": {"details": "Triticum aestivum, TRZSS (wheat), read-out: Visual Growth Reduction (%) 14 Days After Application, TRZSS"}, "[11]": {"details": "CYPES: yellow nutsedge (Cyperus esculentus), read-out: Visual Growth Reduction (%) 14 Days After Application, CYPES"}, "[12]": {"details": "DIGSA: crabgrass (Digitaria sanguinalis), read-out: Visual Growth Reduction (%) 14 Days After Application, DIGSA"}, "[13]": {"details": "ECHCG: barnyardgrass (Echinochloa crus-galli), read-out: Visual Growth Reduction (%) 14 Days After Application, ECHCG"}, "[14]": {"details": "ORYSA: rice (Oryza sativa), read-out: Visual Growth Reduction (%) 14 Days After Application, ORYSA"}, "[15]": {"details": "SETFA: giant foxtail (Setaria faberi), read-out: Visual Growth Reduction (%) 14 Days After Application, SETFA"}, "[16]": {"details": "SORVU: grain sorghum (Sorghum vulgare), read-out: Visual Growth Reduction (%) 14 Days After Application, SORVU"}, "[17]": {"details": "ZEAMX: maize, corn (Zea mays), read-out: Visual Growth Reduction (%) 14 Days After Application, ZEAMX"}},
  "note": "Like-named read-outs stand apart in the source and are kept apart here.",
  "data": [
    {"molecule": "COC(=O)c1nc(-c2ccc(C#N)cc2)c(C)c(N)c1Cl", "note": "[Compound 83, Methyl 4-amino-3-chloro-6-(4-cyanophenyl)-5-methylpicolinate]", "values": [
      {"measurement": "pest or weed control at 70 g/ha", "setting": "[1]; [3]", "result": "0 to 29", "unit": "%"},
      {"measurement": "pest or weed control at 140 g/ha", "setting": "[1]; [3]", "result": "30 to 44", "unit": "%"},
      {"measurement": "pest or weed control at 70 g/ha", "setting": "[1]; [4]", "result": "0 to 29", "unit": "%"},
      {"measurement": "pest or weed control at 140 g/ha", "setting": "[1]; [4]", "result": "0 to 29", "unit": "%"},
      {"measurement": "pest or weed control at 70 g/ha", "setting": "[1]; [5]", "result": "0 to 29", "unit": "%"},
      {"measurement": "pest or weed control at 140 g/ha", "setting": "[1]; [5]", "result": "0 to 29", "unit": "%"},
      {"measurement": "pest or weed control at 70 g/ha", "setting": "[1]; [6]", "result": "0 to 29", "unit": "%"},
      {"measurement": "pest or weed control at 140 g/ha", "setting": "[1]; [6]", "result": "0 to 29", "unit": "%"},
      {"measurement": "pest or weed control at 70 g/ha", "setting": "[1]; [7]", "result": "0 to 29", "unit": "%"},
      {"measurement": "pest or weed control at 140 g/ha", "setting": "[1]; [7]", "result": "0 to 29", "unit": "%"},
      {"measurement": "pest or weed control at 70 g/ha", "setting": "[1]; [8]", "result": "85 to 94", "unit": "%"},
      {"measurement": "pest or weed control at 140 g/ha", "setting": "[1]; [8]", "result": "85 to 94", "unit": "%"},
      {"measurement": "pest or weed control at 70 g/ha", "setting": "[1]; [9]", "result": "0 to 29", "unit": "%"},
      {"measurement": "pest or weed control at 140 g/ha", "setting": "[1]; [9]", "result": "0 to 29", "unit": "%"},
      {"measurement": "pest or weed control at 70 g/ha", "setting": "[2]; [10]", "result": "0 to 29", "unit": "%"},
      {"measurement": "pest or weed control at 140 g/ha", "setting": "[2]; [10]", "result": "0 to 29", "unit": "%"},
      {"measurement": "pest or weed control at 70 g/ha", "setting": "[2]; [11]", "result": "0 to 29", "unit": "%"},
      {"measurement": "pest or weed control at 140 g/ha", "setting": "[2]; [11]", "result": "0 to 29", "unit": "%"},
      {"measurement": "pest or weed control at 70 g/ha", "setting": "[2]; [12]", "result": "0 to 29", "unit": "%"},
      {"measurement": "pest or weed control at 140 g/ha", "setting": "[2]; [12]", "result": "0 to 29", "unit": "%"},
      {"measurement": "pest or weed control at 70 g/ha", "setting": "[2]; [13]", "result": "0 to 29", "unit": "%"},
      {"measurement": "pest or weed control at 140 g/ha", "setting": "[2]; [13]", "result": "0 to 29", "unit": "%"},
      {"measurement": "pest or weed control at 70 g/ha", "setting": "[2]; [14]", "result": "0 to 29", "unit": "%"},
      {"measurement": "pest or weed control at 140 g/ha", "setting": "[2]; [14]", "result": "0 to 29", "unit": "%"},
      {"measurement": "pest or weed control at 70 g/ha", "setting": "[2]; [15]", "result": "0 to 29", "unit": "%"},
      {"measurement": "pest or weed control at 140 g/ha", "setting": "[2]; [15]", "result": "0 to 29", "unit": "%"},
      {"measurement": "pest or weed control at 70 g/ha", "setting": "[2]; [16]", "result": "0 to 29", "unit": "%"},
      {"measurement": "pest or weed control at 140 g/ha", "setting": "[2]; [16]", "result": "0 to 29", "unit": "%"},
      {"measurement": "pest or weed control at 70 g/ha", "setting": "[2]; [17]", "result": "0 to 29", "unit": "%"},
      {"measurement": "pest or weed control at 140 g/ha", "setting": "[2]; [17]", "result": "0 to 29", "unit": "%"}
    ]}
  ]
}
